Laboratory results: patent US20240295545A1, “GLIOMA THERAPY” (Imperial College Innovations Limited, priority 2021, published 2024)
“Also recorded” adds a separate entry of the source.

Tests used:
[1] = target: T1, mitochondrial F1Fo ATP Synthase c-subunit leak channel (Sus scrofa, UniProt A1XQS5); assay: ACMA assay (H+ leak in submitochondrial vesicles); assay type: biochemical, pig; settings: negative control; swine brain SMVs
T1 construct: isolated swine brain submitochondrial vesicles (SMVs), which are enriched for the F1Fo ATP synthase; from tissue; host or cells: pig (swine) brain, submitochondrial vesicles
T1 sequence (A1XQS5 62-136): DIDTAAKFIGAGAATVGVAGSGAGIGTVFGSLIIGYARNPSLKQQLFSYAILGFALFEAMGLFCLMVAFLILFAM
Description: ACMA assay buffer (concentrations used throughout the assay):
ACMA solution: • Stock solution of 1 mg/ml (3.87 mM) ACMA in 100% ethanol • Diluted to working solution (3 μM) in assay buffer • Aliquots of 10 μL to be added to wells
• 1. Sub-mitochondrial vesicles (SMVs) isolated from pig brains were thawed and prepared to 0.17 μg/μL in ACMA assay buffer. • 2. Drug solutions were added to 386-well plates at a final concentration of 10 μM. • 3. Sub-mitochondrial vesicles (SMVs), isolated from pig brains, were thawed and prepared to 0.17 μg/μL in ACMA assay buffer. 30 μL of this solution (containing 5 μg of polypeptide, as measured via the QuickStart Bradford Protein Assay (Bio-Rad, UK)) was added to each well. • 4. Stock solution of 1 mg/ml (3.87 mM) ACMA (9-amino-6-chloro-2-methoxyacridine) were diluted to working solution 3 μM in assay buffer. Aliquots of 10 μL were added to each well (final concentration of 0.75 μM). • 5. The samples were mixed and incubated at room temperature for 20 mins. • 6. The ACMA fluorescence was measured at 1 min intervals using a Tecan Infinite M200 plate reader—excitation 412 nm, emission 480 nm. • 7. […] Fluorescence was measured quickly after addition of ATP for another 7 mins (1 min intervals). […]

GBM1 cells = assay: Glioma suppression assay (SRB proliferation); assay type: cell-based, human; settings: in vitro; FIG. 4D
Description: • 1. Without removing the cell culture medium, gently add 50% cold TCA to each well (the final concentration of TCA should be 10%), and incubate the plates at 4° C. for 1 h. For 150 μL medium volume in each well, add 30 μL of 50% TCA. • 2. Wash the plates 4 times with slow-running tap water. Then allow the plates to air-dry at RT. After fixing and drying, the plates can be stored indefinitely at RT. • 3. Add 0.4% SRB solution to each well (e.g. 80 μL/well). Leave at room temperature for 1 h (no shaking) and then quickly rinse the plates 4 times with 1% acetic acid to remove unbound dye. Then allow the plates to dry at RT. Stained and dried plates can be stored indefinitely at RT. • 4. Add 10 mM Tris base solution to each well (e.g. 80 μL/well) and shake the plate for 5 min to solubilize the protein-bound dye. Alternatively, if a shaker is not available, SRB can be solubilized after 30 min in 10 mM Tris base solution. • 5. Measure the OD at […] in a microplate reader. The suboptimal wavelengths should be 490-530 nm.
1000 Grade IV cells (cell line 1 in FIG. 2) were plated in cell culture medium (10% FBS in DMEM) per each well in 96-well plates. On day 1, the cells were treated with 10 μM of the indicated drugs and incubated at 37° C. for 5 days. SRB assay was performed prior to addition of the drugs and after 5 days. The values were normalized against those of the control (untreated cultures). […]

Grade IV (GBM) cells = assay: Proliferation of primary tumour cells incubated with mitochondrial toxins, GBM; assay type: cell-based, human; settings: rotenone 100 nM, oligomycin 50 nM, UK5099 10 μM; hypoxia and normoxia; FIG. 1B
Excerpt: (§1) The cell lines employed were low-passage lines, derived from tumour tissue. The cells were obtained from tumour tissue of a highly proliferative glioma (which was a grade IV/glioblastoma multiforme glioma). For comparison, cells were also obtained from a tumour tissue of a comparatively slow-growing glioma (which was a grade III glioma).
(§2) The inventors compared the metabolic and mitochondrial energetic profile of slow-growing glioma/astrocytoma cells (chosen in particular due to their relatively slow growth rate) to that in cells of a highly proliferative glioma primary tumour cells by performing ‘hypoxia’ experiments with primary tumour cells, in which primary tumour cells were deprived of adequate oxygen supply and compared with control cells not so deprived (‘normoxia’). […] The slow growing cells were selected from a grade III glioma, and the highly proliferative cells were chosen from a grade IV glioma i.e. glioblastoma multiforme cells.
(§3) To further investigate this, primary tumour cells were incubated (both under hypoxia and normoxia) with the toxins rotenone (100 nM), oligomycin (50 nM), a combination of rotenone and oligomycin (100 nM and 50 nM, respectively) or UK5099 (10 μM).

[2] = tested on: grade III astrocytoma cells; assay: Proliferation of primary tumour cells incubated with mitochondrial toxins, grade III; assay type: cell-based, human; settings: rotenone 100 nM, oligomycin 50 nM, UK5099 10 μM; hypoxia and normoxia; FIG. 1B
Excerpt: as §1, §2, §3

Structure (SMILES)	ATP response in ACMA assay [1]	effect on proliferation of GBM1 cell line (highest rate of proliferation) (GBM1 cells)	effect on proliferation of GBM cells (Grade IV (GBM) cells)	effect on proliferation of grade III astrocytoma cells [2]
N#CC(C#N)=NNc1ccc(OC(F)(F)F)cc1 [FCCP, carbonylcyanide p-trifluoromethoxyphenylhydrazone]	attenuated			
Cn1nnc2c(C(N)=O)ncn2c1=O [TMZ, temozolomide]		no effect		
N#C/C(=C\c1cn(-c2ccccc2)c2ccccc12)C(=O)O [UK5099]			decreases the proliferation; also recorded: impeded the proliferation	without a significant effect
CC[C@H]1/C=C/C=C/C[C@@H](C)[C@H](O)[C@@](C)(O)C(=O)[C@@H](C)[C@H](O)[C@@H](C)C(=O)[C@@H](C)[C@H](O)[C@@H](C)/C=C/C(=O)O[C@@H]2[C@H](C)[C@H](CC1)O[C@]1(CC[C@H](C)[C@H](C[C@@H](C)O)O1)[C@H]2C [oligomycin]	attenuated		decreases the proliferation; also recorded: impeded the proliferation	without a significant effect
C=C(C)[C@H]1Cc2c(ccc3c2O[C@@H]2COc4cc(OC)c(OC)cc4[C@@H]2C3=O)O1 [rotenone]			decreases the proliferation; also recorded: impeded the proliferation	without a significant effect
